Laboratory results as given in ChEMBL document CHEMBL3351430, “Inhibition studies of new ureido-substituted sulfonamides incorporating a GABA moiety against human carbonic anhydrase isoforms I-XIV” (Bioorg Med Chem, 2014).

How the values were obtained:
[1] = molecular target: Carbonic anhydrase 3 (Homo sapiens, UniProt P07451)
Description: Inhibition of human recombinant carbonic anhydrase 3 pre-incubated for 15 mins by stopped-flow CO2 hydration assay

[2] = molecular target: Carbonic anhydrase 6 (Homo sapiens, UniProt P23280); test: Inhibition of human recombinant carbonic anhydrase 6 pre-incubated for 15 mins by stopped-flow CO2 hydration assay
Sequence of Carbonic anhydrase 6 (P23280 whole entry): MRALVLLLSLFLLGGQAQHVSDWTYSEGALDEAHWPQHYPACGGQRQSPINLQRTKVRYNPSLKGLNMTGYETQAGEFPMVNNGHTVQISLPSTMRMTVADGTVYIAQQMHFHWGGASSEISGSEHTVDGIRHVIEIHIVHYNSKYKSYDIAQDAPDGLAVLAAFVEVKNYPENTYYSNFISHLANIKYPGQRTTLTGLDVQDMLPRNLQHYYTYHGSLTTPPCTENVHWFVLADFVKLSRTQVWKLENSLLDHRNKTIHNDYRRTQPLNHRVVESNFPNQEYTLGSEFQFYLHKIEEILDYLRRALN

[3] = molecular target: Carbonic anhydrase 13 (Homo sapiens, UniProt Q8N1Q1)
Sequence of Carbonic anhydrase 13 (Q8N1Q1 whole entry): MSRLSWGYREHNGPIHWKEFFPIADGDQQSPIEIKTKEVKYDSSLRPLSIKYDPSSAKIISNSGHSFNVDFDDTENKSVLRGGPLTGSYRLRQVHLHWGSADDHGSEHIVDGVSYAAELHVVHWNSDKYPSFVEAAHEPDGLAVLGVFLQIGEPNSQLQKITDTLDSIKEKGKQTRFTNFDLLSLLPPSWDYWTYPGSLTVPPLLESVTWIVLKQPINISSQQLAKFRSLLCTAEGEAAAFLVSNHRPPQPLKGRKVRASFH
Description: Inhibition of human recombinant carbonic anhydrase 13 pre-incubated for 15 mins by stopped-flow CO2 hydration assay

[4] = molecular target: Carbonic anhydrase 9 (Homo sapiens, UniProt Q16790)
Description: Inhibition of human recombinant carbonic anhydrase 9 pre-incubated for 15 mins by stopped-flow CO2 hydration assay

Sequence of Carbonic anhydrase 3 (P07451 whole entry): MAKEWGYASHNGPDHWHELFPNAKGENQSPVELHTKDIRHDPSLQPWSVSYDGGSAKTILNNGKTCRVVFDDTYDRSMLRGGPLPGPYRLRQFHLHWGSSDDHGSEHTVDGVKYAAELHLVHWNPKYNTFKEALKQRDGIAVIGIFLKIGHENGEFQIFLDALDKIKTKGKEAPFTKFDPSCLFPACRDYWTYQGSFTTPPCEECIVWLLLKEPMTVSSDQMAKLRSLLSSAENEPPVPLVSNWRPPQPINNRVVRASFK

Row | Compound | Ki [1] | Ki [2] | Ki [3] | Ki [4]
1 | NS(=O)(=O)c1ccc(CCNC(=O)CCCNC(=O)Nc2ccccc2)cc1 | > 21000 nM | > 120 nM | > 240 nM | 41.6 nM
2 | NS(=O)(=O)c1ccc(CNC(=O)CCCNC(=O)NCc2ccccc2)cc1 | > 21000 nM | > 120 nM | > 240 nM | 
3 | NS(=O)(=O)c1ccc(CCNC(=O)CCCNC(=O)Nc2ccc([N+](=O)[O-])cc2)cc1 | > 21000 nM | > 120 nM | > 240 nM | 139 nM
4 | NS(=O)(=O)c1ccc(CNC(=O)CCCNC(=O)Nc2ccccc2)cc1 | > 21000 nM | > 120 nM | > 240 nM | 46 nM

Next, values leading:

Row | Ki [1] | Ki [2] | Ki [3] | Ki [4] | Compound
5 | > 21000 nM | > 120 nM | > 240 nM | 106 nM | NS(=O)(=O)c1ccc(CCNC(=O)CCCNC(=O)NCc2ccccc2)cc1
6 | > 21000 nM | > 120 nM | > 240 nM | 301 nM | NS(=O)(=O)c1ccc(CNC(=O)CCCNC(=O)NCCc2ccccc2)cc1
